One series has as its target CYP3A4 (Homo sapiens, UniProt P08684). Nature of the series: CYP inhibition in human liver microsomes, CYP3A4 (midazolam). The conditions noted are these: probe midazolam, substrate midazolam, read-out: CYP3A4 midazolam Inh %. Set-up: incubated with human liver microsomes; tissue Eurofins ITEMG232; host or cells: human liver microsomes. It counts as in vitro ADME. As to the method: (§1) The following substrates were used: CYP1A phenacetin, CYP2B6 bupropion, CYP2C8 paclitaxel and amodiaquine, CYP2C9 diclofenac, CYP2C19 omeprazole, CYP2D6 dextromethorphan, CYP3A midazolam and testosterone. At the end of the incubation, the formation of metabolite was monitored by HPLC-MS/MS as the peak area response.
On the technique in general: Liver microsomes are a subcellular fraction often used to study metabolism.

Another series deals with T1, CYP2C8 (Homo sapiens, UniProt P10632).
T1 construct: incubated with human liver microsomes; tissue Eurofins ITEMG232; host or cells: human liver microsomes
T1 sequence (P10632 1-490): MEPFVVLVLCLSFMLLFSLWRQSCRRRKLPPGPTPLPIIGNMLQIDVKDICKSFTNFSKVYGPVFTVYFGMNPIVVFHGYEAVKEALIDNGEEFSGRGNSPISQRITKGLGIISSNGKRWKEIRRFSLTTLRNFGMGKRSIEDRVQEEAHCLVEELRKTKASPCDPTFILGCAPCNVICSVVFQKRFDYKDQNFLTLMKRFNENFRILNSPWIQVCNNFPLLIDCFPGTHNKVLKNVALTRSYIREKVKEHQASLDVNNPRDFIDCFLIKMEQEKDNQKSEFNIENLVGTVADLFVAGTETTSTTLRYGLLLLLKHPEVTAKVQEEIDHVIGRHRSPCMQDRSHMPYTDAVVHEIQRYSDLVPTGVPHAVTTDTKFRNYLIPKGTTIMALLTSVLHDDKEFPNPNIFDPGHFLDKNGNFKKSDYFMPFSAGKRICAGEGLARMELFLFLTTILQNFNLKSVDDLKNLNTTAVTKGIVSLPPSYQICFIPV
Kind of series: CYP inhibition in human liver microsomes, CYP2C8. The format is in vitro ADME. The conditions noted are these: probe paclitaxel and amodiaquine, substrate paclitaxel and amodiaquine, read-out: CYP2C8 Inh %. The procedure, abridged: (§2)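 Human liver microsomes were incubated with isoform-selective probe substrates: diclofenac for CYP2C9, dextromethorphan for CYP2D6, and paclitaxel and amodiaquine for CYP2C8. After incubation, metabolite formation was measured by HPLC-MS/MS as peak area response.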

A further series deals with CYP2C9 (Homo sapiens, UniProt P11712). Kind of series: CYP inhibition in human liver microsomes, CYP2C9. The format is in vitro ADME. Set-up: incubated with human liver microsomes; tissue Eurofins ITEMG232; host or cells: human liver microsomes. The conditions noted are these: probe diclofenac, substrate diclofenac, read-out: CYP2C9 Inh %. A digest of the protocol:
as §2

The next series addresses T2, CYP1A (Homo sapiens, UniProt P05177).
T2 construct: incubated with human liver microsomes; tissue Eurofins ITEMG232; host or cells: human liver microsomes
T2 sequence (P05177 1-516): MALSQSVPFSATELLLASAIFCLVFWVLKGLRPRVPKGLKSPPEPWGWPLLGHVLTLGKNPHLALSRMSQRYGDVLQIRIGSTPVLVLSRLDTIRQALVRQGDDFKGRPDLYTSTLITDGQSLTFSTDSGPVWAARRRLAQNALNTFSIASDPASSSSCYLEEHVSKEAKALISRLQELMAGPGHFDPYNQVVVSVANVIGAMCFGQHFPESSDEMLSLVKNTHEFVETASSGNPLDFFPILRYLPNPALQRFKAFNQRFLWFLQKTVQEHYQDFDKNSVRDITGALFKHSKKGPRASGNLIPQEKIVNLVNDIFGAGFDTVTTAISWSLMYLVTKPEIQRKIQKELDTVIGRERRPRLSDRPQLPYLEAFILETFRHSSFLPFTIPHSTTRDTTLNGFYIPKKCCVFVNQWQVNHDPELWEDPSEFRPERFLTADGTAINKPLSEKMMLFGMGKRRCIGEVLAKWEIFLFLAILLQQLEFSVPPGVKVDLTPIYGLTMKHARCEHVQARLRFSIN
Nature of the series: CYP inhibition in human liver microsomes, CYP1A. It counts as in vitro ADME. The conditions noted are these: probe phenacetin, substrate phenacetin, read-out: CYP1A Inh %. The procedure:
as §1

In a further series the target is T3, CYP2C19 (Homo sapiens, UniProt P33261).
T3 construct: incubated with human liver microsomes; tissue Eurofins ITEMG232; host or cells: human liver microsomes
T3 sequence (P33261 whole entry): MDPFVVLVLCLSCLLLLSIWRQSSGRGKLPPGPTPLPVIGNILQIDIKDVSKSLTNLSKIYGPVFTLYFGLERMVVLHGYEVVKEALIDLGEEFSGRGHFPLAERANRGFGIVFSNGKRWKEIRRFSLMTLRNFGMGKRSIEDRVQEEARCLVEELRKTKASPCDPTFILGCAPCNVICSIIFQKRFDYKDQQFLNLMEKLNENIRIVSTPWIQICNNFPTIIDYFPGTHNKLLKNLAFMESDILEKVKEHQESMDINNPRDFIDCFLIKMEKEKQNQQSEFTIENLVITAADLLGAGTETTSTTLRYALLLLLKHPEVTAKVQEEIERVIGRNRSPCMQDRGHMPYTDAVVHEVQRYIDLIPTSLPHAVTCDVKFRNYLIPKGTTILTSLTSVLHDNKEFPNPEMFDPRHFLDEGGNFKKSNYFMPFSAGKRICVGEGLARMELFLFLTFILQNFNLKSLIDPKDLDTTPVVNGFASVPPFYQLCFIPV
Kind of series: CYP inhibition in human liver microsomes, CYP2C19. It counts as in vitro ADME. The conditions noted are these: probe omeprazole, substrate omeprazole, read-out: CYP2C19 Inh %. The procedure: as §1

In the next series the test system is CYP3A4&5. Nature of the series: CYP inhibition in human liver microsomes, CYP3A4&5 (testosterone). It counts as in vitro ADME. The conditions noted are these: probe testosterone, substrate testosterone, read-out: CYP3A4&5 testosterone Inh %. The procedure: as §1
The next series has as its target T4, CYP2D6 (Homo sapiens, UniProt P10635).
T4 construct: incubated with human liver microsomes; tissue Eurofins ITEMG232; host or cells: human liver microsomes
Kind of series: CYP inhibition in human liver microsomes, CYP2D6. The conditions noted are these: probe dextromethorphan, substrate dextromethorphan, read-out: CYP2D6 Inh %. It counts as in vitro ADME. A digest of the protocol: as §2

The target in series [1] is T5, human recombinant AT1 receptor (Homo sapiens, UniProt P30556).
T5 construct: purchased Eurofins ITEM24
T5 sequence (P30556 1-359): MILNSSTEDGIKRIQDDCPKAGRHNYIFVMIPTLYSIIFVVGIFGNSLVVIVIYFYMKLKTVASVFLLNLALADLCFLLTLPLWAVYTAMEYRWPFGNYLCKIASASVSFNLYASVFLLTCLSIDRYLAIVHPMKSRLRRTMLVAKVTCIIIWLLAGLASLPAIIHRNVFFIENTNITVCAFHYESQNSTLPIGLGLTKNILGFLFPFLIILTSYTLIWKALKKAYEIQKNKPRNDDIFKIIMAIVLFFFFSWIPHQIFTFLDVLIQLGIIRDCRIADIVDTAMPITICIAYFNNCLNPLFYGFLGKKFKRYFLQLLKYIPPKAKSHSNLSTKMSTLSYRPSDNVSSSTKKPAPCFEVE
Kind of series: Binding to AT1 receptor, radiometric scintillation assay (Eurofins). The conditions noted are these: ligand 125I(sar1,Ile8)-AT-II, tested at 1 and 10 μM. The procedure: Compounds were evaluated for binding to the human recombinant AT2 and AT1 receptor according to Eurofins protocol ITEM26 and ITEM24 using a radiometric scintillation assay.

Series [2] can be described thus: Metabolic stability in pooled human liver microsomes. The format is in vitro ADME. The conditions noted are these: pooled human liver microsomes 0.5 mg/ml, 1 μM test compound, 37° C.
Where [3] appears, read: with 1 mM NADPH, read-out: T1/2, + NaDPH.
The mark [4] stands for this setting: without NADPH, read-out: T1/2, no NaDPH.

Each structure is given as a SMILES string. Like-named read-outs stand apart in the source and are kept apart here.

Sequence of CYP3A4 (P08684 whole entry): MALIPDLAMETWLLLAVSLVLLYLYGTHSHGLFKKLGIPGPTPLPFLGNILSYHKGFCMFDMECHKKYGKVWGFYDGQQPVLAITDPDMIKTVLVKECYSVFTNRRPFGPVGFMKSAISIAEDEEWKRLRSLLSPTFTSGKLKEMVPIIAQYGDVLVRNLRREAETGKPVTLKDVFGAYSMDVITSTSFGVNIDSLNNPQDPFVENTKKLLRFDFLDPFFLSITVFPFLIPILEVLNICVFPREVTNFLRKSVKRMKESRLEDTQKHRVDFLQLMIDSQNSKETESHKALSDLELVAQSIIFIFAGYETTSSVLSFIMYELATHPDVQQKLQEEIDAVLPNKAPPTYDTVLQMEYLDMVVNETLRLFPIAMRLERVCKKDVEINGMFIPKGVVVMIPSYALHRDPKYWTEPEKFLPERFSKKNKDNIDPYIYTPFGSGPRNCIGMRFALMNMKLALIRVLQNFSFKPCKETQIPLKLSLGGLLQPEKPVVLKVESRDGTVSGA
T4 sequence (P10635 whole entry): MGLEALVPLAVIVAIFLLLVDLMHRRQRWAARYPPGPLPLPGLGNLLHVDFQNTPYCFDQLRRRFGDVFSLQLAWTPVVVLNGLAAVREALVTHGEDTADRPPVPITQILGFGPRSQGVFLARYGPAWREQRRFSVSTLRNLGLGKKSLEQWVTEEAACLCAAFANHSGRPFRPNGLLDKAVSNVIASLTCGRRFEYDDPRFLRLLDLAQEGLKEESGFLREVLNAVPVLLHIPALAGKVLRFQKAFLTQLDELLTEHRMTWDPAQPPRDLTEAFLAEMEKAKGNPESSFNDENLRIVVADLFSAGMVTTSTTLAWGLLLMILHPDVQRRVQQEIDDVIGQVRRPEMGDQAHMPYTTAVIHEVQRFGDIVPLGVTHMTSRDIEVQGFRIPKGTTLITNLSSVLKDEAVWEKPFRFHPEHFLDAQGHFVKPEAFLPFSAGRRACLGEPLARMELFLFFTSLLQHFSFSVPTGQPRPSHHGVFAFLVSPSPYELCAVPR
Sequence of CYP2C9 (P11712 whole entry): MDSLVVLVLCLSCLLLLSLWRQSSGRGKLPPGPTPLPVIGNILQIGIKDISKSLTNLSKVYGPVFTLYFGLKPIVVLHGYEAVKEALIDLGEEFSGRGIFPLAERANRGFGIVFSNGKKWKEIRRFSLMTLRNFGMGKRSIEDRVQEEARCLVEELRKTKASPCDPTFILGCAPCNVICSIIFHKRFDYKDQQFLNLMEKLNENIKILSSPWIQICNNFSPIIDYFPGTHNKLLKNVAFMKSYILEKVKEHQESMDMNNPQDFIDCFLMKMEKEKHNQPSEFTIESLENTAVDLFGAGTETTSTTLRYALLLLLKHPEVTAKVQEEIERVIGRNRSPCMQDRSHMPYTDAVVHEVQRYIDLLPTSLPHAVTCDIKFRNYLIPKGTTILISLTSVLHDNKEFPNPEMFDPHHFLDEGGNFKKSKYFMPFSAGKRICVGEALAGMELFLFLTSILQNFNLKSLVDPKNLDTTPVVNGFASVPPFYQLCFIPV

As usually defined, the IC50 is the concentration that inhibits the measured activity by half. Regarding `Cc1nccn1Cc1ccc(-c2cc(CC(C)C)sc2S(=O)(=O)NC(=O)NCc2nccn2C)cc1F` [Example 15, 1-(3-{3-Fluoro-4-[(2-methyl-1H-imidazol-1-yl)methyl]phenyl}-5-isobutyl-2-thienylsulfonyl)-3-[(1-methyl-1H-imidazol-2-yl)methyl]urea], the inhibition at 10 µM at CYP3A4 stood at 38%; on CYP2C8, 48%; at CYP2C9, 30%; on CYP1A, 20%; on CYP2C19, 73%; in the series on CYP3A4&5, 12%. For the same compound, the inhibition at 10 µM on CYP2D6 was 53%. In addition, the 50% inhibitory concentration (IC50) in series [1] was found to be 463 µM. For the same compound, the half-life at 1 μM in series [2] (setting [3]) and in [2] (setting [4]) was over 1 h in each case.

With `Cc1nccn1Cc1ccc(-c2cc(CC(C)C)sc2S(=O)(=O)NC(=O)NC(C)c2ccccn2)cc1F` (stereo not shown) [Example 25, 3-(3-{3-Fluoro-4-[(2-methyl-1H-imidazol-1-yl)methyl]phenyl}-5-isobutyl-2-thienylsulfonyl)-1-[1-(2-pyridyl)ethyl]urea], the inhibition at 10 µM on CYP3A4 is 16%; at CYP2C8, 56%; at CYP2C9 it was 50%; at CYP1A it was 8%; at CYP2C19 it was 56%; in the series on CYP3A4&5, 15%. The inhibition at 10 µM on CYP2D6 was found to be 16%. Also, in series [1], the IC50 is 30 µM. The half-life at 1 μM in series [2] (setting [3]) is 1 h; in [2] (setting [4]) it was over 1 h.

For the compound `CCc1nccn1Cc1ccc(-c2cc(CC(C)C)sc2S(=O)(=O)NC(=O)NCc2ccc(F)cc2)cc1F.O=C(O)C(F)(F)F` [Example 32, 3-[(3-{4-[(2-ethyl-1H-imidazol-1-yl)methyl]-3-fluorophenyl}-5-(2-methylpropyl)thiophen-2-yl)sulfonyl]-1-[(4-fluorophenyl)methyl] urea trifluoroacetic acid], the inhibition at 10 µM on CYP3A4 is 35%; on CYP2C8 it was 65%; on CYP2C9, 49%; at CYP1A, -26%; at CYP2C19, 67%; in the series with CYP3A4&5, 10%. Moreover, the inhibition at 10 µM on CYP2D6 was determined as 39%. Also, in series [1], the IC50 turned out to be 5 µM. Moreover, the half-life at 1 μM in series [2] (setting [3]) is 0.117 h; in [2] (setting [4]), over 1 h.

In the case of `CCCNC(=O)NS(=O)(=O)c1sc(CC(C)C)cc1-c1ccc(Cn2ccnc2CC)c(F)c1.O=C(O)C(F)(F)F` [Example 33, 1-[(3-{4-[(2-ethyl-1H-imidazol-1-yl)methyl]-3-fluorophenyl}-5-(2-methylpropyl)thiophen-2-yl)sulfonyl]-3-propylurea trifluoroacetic acid], the inhibition at 10 µM is -37% at CYP3A4; 69% at CYP2C8; 34% at CYP2C9; 14% on CYP1A; 26% at CYP2C19; 11% in the series on CYP3A4&5. At CYP2D6, the inhibition at 10 µM came to 18%. The half-maximal inhibitory concentration (IC50) in [1] worked out at 19 µM. The half-life at 1 μM in series [2] (setting [3]) and in series [2] (setting [4]) was over 1 h each time.

Take `Cc1nccn1Cc1ccc(-c2cc(CC(C)C)sc2S(=O)(=O)NC(=O)NCc2ccc(F)c(F)c2)cc1F.O=C(O)C(F)(F)F` [Example 34, 1-[(3,4-difluorophenyl)methyl]-3-[(3-{3-fluoro-4-[(2-methyl-1H-imidazol-1-yl)methyl]phenyl}-5-(2-methylpropyl)thiophen-2-yl)sulfonyl]urea trifluoroacetic acid]: the inhibition at 10 µM on CYP3A4 was 74%; on CYP2C8 it was 64%; at CYP2C9, 75%; at CYP1A, -6%; on CYP2C19, 80%; with CYP3A4&5 it was 60%. Besides, the inhibition at 10 µM on CYP2D6 was 40%. The IC50 in series [1] turned out to be 21 µM. Also, the half-life at 1 μM in series [2] (setting [3]) was 0.1 h; in series [2] (setting [4]) it was over 1 h.

`Cc1nccn1Cc1ccc(-c2cc(CC(C)C)sc2S(=O)(=O)NC(=O)NCc2cccs2)cc1F.O=C(O)C(F)(F)F` [Example 35, 1-[(3-{3-fluoro-4-[(2-methyl-1H-imidazol-1-yl)methyl]phenyl}-5-(2-methylpropyl)thiophen-2-yl)sulfonyl]-3-[(thiophen-2-yl)methyl]urea trifluoroacetic acid]: the inhibition at 10 µM turned out to be 26% at CYP3A4; 56% at CYP2C8; 71% on CYP2C9; 20% on CYP1A; 60% at CYP2C19; 25% with CYP3A4&5. Besides, the inhibition at 10 µM at CYP2D6 was 45%. For the same compound, in [1], the IC50 worked out at 8 µM. The half-life at 1 μM in [2] (setting [3]) was 0.75 h; in series [2] (setting [4]) it was over 1 h.

For the compound `Cc1nccn1Cc1ccc(-c2cc(CC(C)C)sc2S(=O)(=O)NC(=O)NCc2cc(Cl)ccn2)cc1F.O=C(O)C(F)(F)F` [Example 38, 1-[(4-chloropyridin-2-yl)methyl]-3-[(3-{3-fluoro-4-[(2-methyl-1H-imidazol-1-yl)methyl]phenyl}-5-(2-methylpropyl)thiophen-2-yl)sulfonyl]urea trifluoroacetic acid], the inhibition at 10 µM at CYP3A4 was 22%; at CYP2C8, 62%; at CYP2C9 it was 48%; on CYP1A, 13%; at CYP2C19, 58%; in the series with CYP3A4&5, 13%. At CYP2D6, the inhibition at 10 µM came out at 19%. Also, the IC50 in series [1] was found to be 25 µM. The values for the half-life at 1 μM in [2] (setting [3]) and in series [2] (setting [4]) were 0.45 h and over 1 h, respectively.

Source of the values: patent publication US12435072B2, “Compounds” (Vicore Pharma AB, priority 2019, dated 2025).
